Patent publication US20160002204A1 (Board of Regents, The University of Texas System, priority 2014, published 2016)

Legend:
[1] = molecular target: T1, GLS1 (purified recombinant human GAC) (Homo sapiens, UniProt O94925); test: GLS1 enzymatic activity assay (dual-coupled, Amplex UltraRed/resorufin); assay type: biochemical
T1 sequence (O94925 55-598 isoform O94925-3 limits assumed): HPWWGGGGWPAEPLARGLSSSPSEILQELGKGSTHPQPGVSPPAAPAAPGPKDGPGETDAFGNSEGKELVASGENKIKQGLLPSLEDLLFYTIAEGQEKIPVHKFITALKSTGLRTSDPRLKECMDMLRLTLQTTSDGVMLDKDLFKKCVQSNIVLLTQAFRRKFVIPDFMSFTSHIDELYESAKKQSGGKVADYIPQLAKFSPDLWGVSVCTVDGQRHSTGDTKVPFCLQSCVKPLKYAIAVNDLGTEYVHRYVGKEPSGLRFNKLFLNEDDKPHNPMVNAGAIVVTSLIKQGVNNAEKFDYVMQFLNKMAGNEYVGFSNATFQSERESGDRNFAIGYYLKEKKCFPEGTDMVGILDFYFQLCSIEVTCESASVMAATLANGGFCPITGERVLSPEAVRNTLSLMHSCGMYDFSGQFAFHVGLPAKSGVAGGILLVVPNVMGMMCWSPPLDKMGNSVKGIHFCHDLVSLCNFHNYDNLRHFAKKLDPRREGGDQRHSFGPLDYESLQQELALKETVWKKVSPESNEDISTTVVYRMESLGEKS
Method in brief: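 In this coupled fluorometric format, phosphate-activated GAC (2 nM, 50 mM phosphate) is pre-exposed to compound for 10 min before 1 mM glutamine addition. Product is tracked as resorufin (530/590 nm) over time or at 20 min, and potency is derived by logistic fitting.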

A549 cells = test: A549 proliferation (viability) assay, Cell Titer Fluor, 72 hours; assay type: cell-based; settings: Homo sapiens
Method in brief: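 A549 cells in RPMI 1640 with 10% dialyzed FBS were seeded at 1000 cells/well, grown 24 h, then exposed to compound (0.5% DMSO final) for 72 h at 37 °C, 5% CO2. Viability was read by Cell Titer Fluor fluorescence; EC50 from four-parameter logistic fit.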

Compound | IC50 [1] [nM] | EC50 (A549 cells) [nM]
CO[C@H](C(=O)Nc1ccn(CC(F)CCn2cc(C(=O)NCc3cccc(OC(F)(F)F)c3)nn2)c(=O)c1F)c1ccccc1 (stereo partly drawn) [Example 309, 1-(3-fluoro-4-{3-fluoro-4-[(2S)-2-methoxy-2-phenylacetamido]-2-oxo-1,2-dihydropyridin-1-yl}butyl)-N-{[3-(trifluoromethoxy)phenyl]methyl}-1H-1,2,3-triazole-4-carboxamide] | 500 to 5000 | 500 to 5000
CO[C@@H](C(=O)Nc1ccn(CC(F)CCn2cc(C(=O)NCc3cccc(OC(F)(F)F)c3)nn2)c(=O)c1F)c1ccccc1 (stereo partly drawn) [Example 310, 1-(3-fluoro-4-{3-fluoro-4-[(2R)-2-methoxy-2-phenylacetamido]-2-oxo-1,2-dihydropyridin-1-yl}butyl)-N-{[3-(trifluoromethoxy)phenyl]methyl}-1H-1,2,3-triazole-4-carboxamide] | 500 to 5000 | 500 to 5000
CCOC(=O)c1cn(CC(F)CCn2ccc(NC(=O)OC(C)(C)C)c(F)c2=O)nn1 (stereo not drawn) [Example 311, ethyl 1-[4-(4-{[(tert-butoxy)carbonyl]amino}-3-fluoro-2-oxo-1,2-dihydropyridin-1-yl)-2-fluorobutyl]-1H-1,2,3-triazole-4-carboxylate] | 500 to 5000 | > 5000
CO[C@H](C(=O)Nc1ccn(CCC(F)Cn2cc(C(=O)NCc3ccc(C)nc3)nn2)c(=O)c1F)c1ccccc1 (stereo partly drawn) [Example 312, 1-(2-fluoro-4-{3-fluoro-4-[(2S)-2-methoxy-2-phenylacetamido]-2-oxo-1,2-dihydropyridin-1-yl}butyl)-N-[(6-methylpyridin-3-yl)methyl]-1H-1,2,3-triazole-4-carboxamide] | < 100 | 100 to 500
CO[C@@H](C(=O)Nc1ccn(CCC(F)Cn2cc(C(=O)NCc3ccc(C)nc3)nn2)c(=O)c1F)c1ccccc1 (stereo partly drawn) [Example 313, 1-(2-fluoro-4-{3-fluoro-4-[(2R)-2-methoxy-2-phenylacetamido]-2-oxo-1,2-dihydropyridin-1-yl}butyl)-N-[(6-methylpyridin-3-yl)methyl]-1H-1,2,3-triazole-4-carboxamide] | < 100 | 100 to 500
CC(C)(C)OC(=O)N1CCC(CC(=O)Nc2ccn(CC(F)CCn3cc(C(=O)NCc4cccc(OC(F)(F)F)c4)nn3)c(=O)c2F)CC1 (stereo not drawn) [Example 314, tert-butyl 4-{[(3-fluoro-1-{2-fluoro-4-[4-({[3-(trifluoro-methoxy)phenyl]methyl}carbamoyl)-1H-1,2,3-triazol-1-yl]butyl}-2-oxo-1,2-dihydropyridin-4-yl)carbamoyl]methyl}piperidine-1-carboxylate] | 500 to 5000 | 100 to 500
O=C(Nc1ccn(CCC(F)Cn2cc(C(=O)NCc3cccc(OC(F)(F)F)c3)nn2)c(=O)c1F)C(=O)c1ccccc1 (stereo not drawn) [Example 315, 1-{2-fluoro-4-[3-fluoro-2-oxo-4-(2-oxo-2-phenylacetamido)-1,2-dihydropyridin-1-yl]butyl}-N-{[3-(trifluoromethoxy)phenyl]methyl}-1H-1,2,3-triazole-4-carboxamide] | < 100 | < 100
CC(C(=O)Nc1ccn(CCC(F)Cn2cc(C(=O)NCc3cccc(OC(F)(F)F)c3)nn2)c(=O)c1F)c1ccccc1 (stereo not drawn) [Example 316, 1-{2-fluoro-4-[3-fluoro-2-oxo-4-(2-phenylpropanamido)-1,2-dihydropyridin-1-yl]butyl}-N-{[3-(trifluoromethoxy)phenyl]methyl}-1H-1,2,3-triazole-4-carboxamide] | < 100 | < 100
O=C(Cc1ccccc1)Nc1ccn(CCC(F)Cn2cc(C(=O)NCc3cccc(C(F)(F)F)n3)nn2)c(=O)c1F (stereo not drawn) [Example 317, 1-{2-fluoro-4-[3-fluoro-2-oxo-4-(2-phenylacetamido)-1,2-dihydropyridin-1-yl]butyl}-N-{[6-(trifluoromethyl)pyridin-2-yl]methyl}-1H-1,2,3-triazole-4-carboxamide] | < 100 | < 100
O=C(CC1CCCC1)Nc1ccn(CCC(F)Cn2cc(C(=O)NCc3cccc(C(F)(F)F)n3)nn2)c(=O)c1F (stereo not drawn) [Example 318, 1-{4-[4-(2-cyclopentylacetamido)-3-fluoro-2-oxo-1,2-dihydropyridin-1-yl]-2-fluorobutyl}-N-{[6-(trifluoromethyl)pyridin-2-yl]methyl}-1H-1,2,3-triazole-4-carboxamide] | < 100 | < 100
CC(C)(C)OC(=O)Nc1ccn(CCC(F)Cn2cc(C(=O)NCc3cc(C(F)(F)F)ccn3)nn2)c(=O)c1F (stereo not drawn) [Example 320, tert-butyl N-(3-fluoro-1-{3-fluoro-4-[4-({[4-(trifluoromethyl)pyridin-2-yl]methyl}carbamoyl)-1H-1,2,3-triazol-1-yl]butyl}-2-oxo-1,2-dihydropyridin-4-yl)carbamate] | 100 to 500 | 100 to 500
O=C(Cc1ccccc1)Nc1ccn(CCC(F)Cn2cc(C(=O)NCc3cc(C(F)(F)F)ccn3)nn2)c(=O)c1F (stereo not drawn) [Example 323, 1-{2-fluoro-4-[3-fluoro-2-oxo-4-(2-phenylacetamido)-1,2-dihydropyridin-1-yl]butyl}-N-{[4-(trifluoromethyl)pyridin-2-yl]methyl}-1H-1,2,3-triazole-4-carboxamide] | < 100 | < 100
CCOC(=O)N1CCC(CC(=O)Nc2ccn(CCC(F)Cn3cc(C(=O)NCc4cc(C(F)(F)F)ccn4)nn3)c(=O)c2F)CC1 (stereo not drawn) [Example 324, ethyl 4-{[(3-fluoro-1-{3-fluoro-4-[4-({[4-(trifluoromethyl)pyridin-2-yl]methyl}carbamoyl)-1H-1,2,3-triazol-1-yl]butyl}-2-oxo-1,2-dihydropyridin-4-yl)carbamoyl]methyl}piperidine-1-carboxylate] | < 100 | < 100
CC(=O)OC(C(=O)Nc1ccn(CC[C@H](F)Cn2cc(C(=O)NCc3cc(C(F)(F)F)ccn3)nn2)c(=O)c1F)c1ccccc1 (stereo partly drawn) [Example 325, (S)-[(3-fluoro-1-{3-fluoro-4-[4-({[4-(trifluoromethyl)pyridin-2-yl]methyl}carbamoyl)-1H-1,2,3-triazol-1-yl]butyl}-2-oxo-1,2-dihydropyridin-4-yl)carbamoyl](phenyl)methyl acetate] | < 100 | < 100
O=C(NCc1cc(C(F)(F)F)ccn1)c1cn(CC(F)CCn2ccc(NC(=O)[C@@H](O)c3ccccc3)c(F)c2=O)nn1 (stereo partly drawn) [Example 326, 1-(2-fluoro-4-{3-fluoro-4-[(2S)-2-hydroxy-2-phenylacetamido]-2-oxo-1,2-dihydropyridin-1-yl}butyl)-N-{[4-(trifluoromethyl)pyridin-2-yl]methyl}-1H-1,2,3-triazole-4-carboxamide] | < 100 | < 100
O=C(NCc1cccc(OC(F)(F)F)c1)c1cn(CC(F)CCn2ccc(NC(=O)C(F)c3ccccc3)c(F)c2=O)nn1 (stereo not drawn) [Example 327, 1-{2-fluoro-4-[3-fluoro-4-(2-fluoro-2-phenylacetamido)-2-oxo-1,2-dihydropyridin-1-yl]butyl}-N-{[3-(trifluoromethoxy)phenyl]methyl}-1H-1,2,3-triazole-4-carboxamide] | < 100 | < 100
O=C(Cc1ccccc1F)Nc1ccn(CCC(F)Cn2cc(C(=O)NCc3cccc(OC(F)(F)F)c3)nn2)c(=O)c1F (stereo not drawn) [Example 328, 1-(2-fluoro-4-{3-fluoro-4-[2-(2-fluorophenyl)acetamido]-2-oxo-1,2-dihydropyridin-1-yl}butyl)-N-{[3-(trifluoromethoxy)phenyl]methyl}-1H-1,2,3-triazole-4-carboxamide] | < 100 | < 100
O=C(CC1CCCC1)Nc1ccn(CCC(F)Cn2cc(C(=O)NCc3cc(C(F)(F)F)ccn3)nn2)c(=O)c1F (stereo not drawn) [Example 329, 1-{4-[4-(2-cyclopentylacetamido)-3-fluoro-2-oxo-1,2-dihydropyridin-1-yl]-2-fluorobutyl}-N-{[4-(trifluoromethyl)pyridin-2-yl]methyl}-1H-1,2,3-triazole-4-carboxamide] | < 100 | < 100
CC(C)(C)OC(=O)Nc1ccn(CCC(F)Cn2cc(C(=O)NCc3cncc(C(F)(F)F)c3)nn2)c(=O)c1F (stereo not drawn) [Example 330, tert-butyl N-(3-fluoro-1-{3-fluoro-4-[4-({[5-(trifluoromethyl)pyridin-3-yl]methyl}carbamoyl)-1H-1,2,3-triazol-1-yl]butyl}-2-oxo-1,2-dihydropyridin-4-yl)carbamate] | < 100 | 100 to 500
Nc1ccn(CCC(F)Cn2cc(C(=O)NCc3cncc(C(F)(F)F)c3)nn2)c(=O)c1F (stereo not drawn) [Example 331, 1-[4-(4-amino-3-fluoro-2-oxo-1,2-dihydropyridin-1-yl)-2-fluorobutyl]-N-{[5-(trifluoromethyl)pyridin-3-yl]methyl}-1H-1,2,3-triazole-4-carboxamide] | 500 to 5000 | > 5000
O=C(CC1CCC1)Nc1ccn(CCC(F)Cn2cc(C(=O)NCc3cc(C(F)(F)F)ccn3)nn2)c(=O)c1F (stereo not drawn) [Example 332, 1-{4-[4-(2-cyclobutylacetamido)-3-fluoro-2-oxo-1,2-dihydropyridin-1-yl]-2-fluorobutyl}-N-{[4-(trifluoromethyl)pyridin-2-yl]methyl}-1H-1,2,3-triazole-4-carboxamide] | < 100 | < 100
